# Patent publication US20050058745A1, “Use of Labiatae herb preparations for extending the flavor shelf life of malt beverages” (priority 2003, published 2005)
# Legend:
# [1] = DCIP redox potential of highly hopped beer during aging at 40° C.; assay type: physicochemical; parameters: DCIP Redox Value: scale not given here; conditions: for effect on DCIP redox potential: highly hopped beer aged at 40° C.
# Procedure: Dr. […] H2SO4 brought to 100 mL in a volumetric flask. Four drops of starch indicator were added, and the DCIP was titrated with 0.01; sodium thiosulfate. The concentration of DCIP in mg/dL was measured by multiplying the mL of titer by 14.5. De-ionized water was added to adjust the final concentration to 1.45 mg/mL. 250 μL of adjusted DCIP was added to the 10 mL of degassed beer, the flask swirled to mix, and a 1 min timer started. The beer/DCIP was poured into a 1 cm cuvette and placed in the spectrophotometer. The absorbance was read at exactly 1 minute. These analyses were done in triplicate and averaged. […] The bottle dosing methods used were the same as those described in Example 1. The following samples were made: • 1. 20 ppm Carnosic Acid • 2. 20 ppm Carnosic Acid plus Air • 3. 20 ppm Rosmarinic Acid • 4. 20 ppm Rosmarinic Acid plus Air • 5. 10 ppm Carnosic Acid+10 ppm Rosmarinic Acid • 6. 10 ppm Carnosic Acid+10 ppm Rosmarinic Acid+Air • 7. […] No Additions. Treatments 1 through 8 were put in a temperature regulated room set at 40° C. and maintained at ±1° C. At intervals of Zero time, 3 days, 7 days, 14 days, and 21 days, samples were withdrawn and Redox Potentials were measured by the method outlined in example 4. Color measurements were made using the L, a, b system on a Minolta Spectrophotometer model […], chroma and hue angle color measure units were recorded. DPPH radical scavenging numbers were measured using the following method. A de-ionized-H2O/EtOH buffer solution was prepared by dissolving 250 mg sodium citrate dihydrate and 10 g of absolute ethanol in 250 mL of deionized water. The solution was then titrated with 0.1 N Citric acid (6.404 g/L anhydrous citric acid) a drop at a time to reach a pH of between 4.35 and 4.5.
# [2] = Sensory panel staling scaling of bottled standard American lager; conditions: 10 ppm (RA/CA: 5 ppm CA + 5 ppm RA)
# Procedure: A standard American lager and a light lager were purchased commercially. The treatment bottles were opened, dosed, fobbed, crowned and inverted. The control bottles were opened, crowned and inverted. Dosing was performed as follows. One gram of pure antioxidant (corrected for actual purity) was dissolved in 100 mL ethanol and sonicated to make the antioxidant solutions of 1 weight/volume %. The volumes shown in Table 16 show the amount of the antioxidant solutions added to obtain a total of 10 ppm carnosic acid and/or rosmarinic acid in the final beverage formulations.
# The sensory data were taken in the following manner. Each treatment sample was presented to the panelists one time each in two different sessions each at a different amount of aging time (5 vs. 10 days). Panelists rated the beers on a scale of 0-10, with 0 being fresh and 10 being most stale. Since the output of the panel as a whole was desired, and not any one individual panelist, the means of each treatment sample in each replicate groups were calculated and tabulated as in Table 17. Samples spiked with known amounts of off-flavors characteristic of the aged standard American lager were used as reference beers. This characterization was done in a separate descriptive session. The characteristic off-flavors in the pilot brewery beer were papery and leathery, and these were each spiked into fresh control beer at 0.75 and 1.5 times the typical flavor threshold.
# Statistical analysis consisted of doing paired t-Tests on the treatment sample vs. the aged control sample (Table 18). One-tailed tests were used that probed the question whether the staling values of one treatment were lower than that of the other (e.g treatment vs. control). Confidence levels were reported along with p values.
# [3] = Haze formation in aged beer (Haze Meter); assay type: physicochemical; conditions: for Haze: 20 ppm (RA + CA: 10 ppm each); for effect on rate of haze formation: aged beer exposed to air
# Procedure: The highly hopped beer from example 2 was treated with solutions of carnosic acid in ethanol, rosmarinic acid in ethanol or a mixture of carnosic acid and rosmarinic acid in ethanol as done previously. The preparations were: • 1. “Fresh”, in which the beer remained unopened and was stored in the cold room at 2-4° C. • 2. “20 ppm CA” in which bottles were opened and 20 ppm carnosic acid was added from a 2% solution of pure CA ([…] of the 2% solution). The bottles were fobbed to exclude air and crowned. • 3. “20 ppm CA+air” in which bottles were opened and 20 ppm CA added as above. These bottles received two puffs of air in the remaining headspace from a 25 mL bulb. They were crowned without fobbing • 4. “20 ppm RA” in which bottles were opened and 20 ppm rosmarinic acid added from a 2% solution. The bottles were fobbed and crowned. • 5. “20 ppm RA+air” which was done as in No. 4, with 20 ppm RA added. These bottles received the two puffs of air and were crowned without fobbing. • 6. “10 ppm RA+10 ppm CA” in which bottles were opened and 10 ppm each of carnosic and rosmarinic acids were added from pure solutions (178 μL of 2% solution per 12 oz bottle). Bottles were fobbed and crowned. • 7. “10 ppm RA+10 ppm CA+air” in which 10 ppm each of RA and CA was added. This treatment received two puffs of air and was not fobbed before closing. • 8. “Control+air” in which bottles were opened, given two puffs of air and crowned without fobbing. • 9. “Control” in which bottles were opened, fobbed and crowned.
# The samples prepared in Example 18 were analyzed for haze in the following manner. A clean, dry, clear flint bottle was marked with a permanent mark on the neck for aligning the bottle the same way for each measurement. The bottle was filled with distilled water to the bottom of the neck and aligned in a Haze Meter with the alignment mark facing forward (Haze Meter, Type UKM1d, Radiometer Copenhagen) to zero the instrument. The bottle was emptied and then filled with a degassed beer sample to be tested and the haze was recorded in ASBC Formazin units.
# [4] = 0 days at 40° C., + Air, 20 ppm (RA + CA: 10 ppm each)
# [5] = 0 days at 40° C., no air, 20 ppm (CA + RA: 10 ppm each)
# [6] = 3 days at 40° C., + Air, 20 ppm (RA + CA: 10 ppm each)
# [7] = 3 days at 40° C., no air, 20 ppm (CA + RA: 10 ppm each)
# [8] = 7 days at 40° C., + Air, 20 ppm (RA + CA: 10 ppm each)
# [9] = 7 days at 40° C., no air, 20 ppm (CA + RA: 10 ppm each)
# [10] = 14 days at 40° C., + Air, 20 ppm (RA + CA: 10 ppm each)
# [11] = 14 days at 40° C., no air, 20 ppm (CA + RA: 10 ppm each)
# [12] = 21 days at 40° C., + Air, 20 ppm (RA + CA: 10 ppm each)
# [13] = 21 days at 40° C., no air, 20 ppm (CA + RA: 10 ppm each)
Compound,"DCIP Redox Value [1, 4]","DCIP Redox Value [1, 5]","DCIP Redox Value [1, 6]","DCIP Redox Value [1, 7]","DCIP Redox Value [1, 8]","DCIP Redox Value [1, 9]","DCIP Redox Value [1, 10]","DCIP Redox Value [1, 11]","DCIP Redox Value [1, 12]","DCIP Redox Value [1, 13]",effect on DCIP redox potential ([1]; no air),effect on DCIP redox potential ([1]; with added air),"Panelist staling average, Day 5 Average (0 fresh, 10 most stale) ([2]; Aged)","Panelist staling average, Day 10 Average (0 fresh, 10 most stale) ([2]; Aged)","Panelist staling average, Day 5 Average (0 fresh, 10 most stale) ([2]; Fresh)","Panelist staling average, Day 10 Average (0 fresh, 10 most stale) ([2]; Fresh)","Haze ([3]; Day 0, 40° C., + air) [ASBC Formazin Units]","Haze ([3]; Day 0, 40° C., no air) [ASBC Formazin Units]","Haze ([3]; Day 3, 40° C., + air) [ASBC Formazin Units]","Haze ([3]; Day 3, 40° C., no air) [ASBC Formazin Units]",also measured
"O=C(/C=C/c1ccc(O)c(O)c1)O[C@H](Cc1ccc(O)c(O)c1)C(=O)O [RA, rosmarinic acid]",76.0,76.3,63.4,76.2,48.3,63.9,25.1,59.9,26.6,63.4,no effect on the DCIP redox potential,not effective in preserving the DCIP redox potential,3.22,2.75,0.78,2.5,37,37,32,40,"Haze ([3]; Day 7, 40° C., + air): 40 ASBC Formazin Units; Haze ([3]; Day 7, 40° C., no air): 35 ASBC Formazin Units; Haze ([3]; Day 14, 40° C., + air): 100 ASBC Formazin Units; Haze ([3]; Day 14, 40° C., no air): 40 ASBC Formazin Units; Haze ([3]; Day 21, 40° C., + air): 175 ASBC Formazin Units; Haze ([3]; Day 21, 40° C., no air): 55 ASBC Formazin Units; Haze ([3]; Day 35, 40° C., + air): 800 ASBC Formazin Units; Haze ([3]; Day 35, 40° C., no air): 120 ASBC Formazin Units; effect on rate of haze formation [3]: dramatic positive effect on reducing the rate of haze formation"
"CC(C)c1cc2c(c(O)c1O)[C@@]1(C(=O)O)CCCC(C)(C)[C@@H]1CC2 [CA, carnosic acid]",93.8,90.6,89.1,89.1,68.9,83.5,62.1,82.3,62.9,86.9,increases the DCIP redox potential of the starting beer,beneficial effect on aged beer that contains added air,3.00,4.375,2.89,2.25,40,40,45,30,"Haze ([3]; Day 7, 40° C., + air): 50 ASBC Formazin Units; Haze ([3]; Day 7, 40° C., no air): 35 ASBC Formazin Units; Haze ([3]; Day 14, 40° C., + air): 80 ASBC Formazin Units; Haze ([3]; Day 14, 40° C., no air): 45 ASBC Formazin Units; Haze ([3]; Day 21, 40° C., + air): 120 ASBC Formazin Units; Haze ([3]; Day 21, 40° C., no air): 75 ASBC Formazin Units; Haze ([3]; Day 35, 40° C., + air): 800 ASBC Formazin Units; Haze ([3]; Day 35, 40° C., no air): 110 ASBC Formazin Units; effect on rate of haze formation [3]: dramatic positive effect on reducing the rate of haze formation"
